These are literature values, as cited in patent publication US20240238439A1, “HER3-BINDING ANTIBODY-DRUG CONJUGATE” (Hummingbird Bioscience Pte. Ltd., priority 2023, published 2024).

The conditions of this data set: subset of EGFR-mutant and TKI-resistant lung cancers, and metastatic breast cancers; cited from earlier work.

For the substance Patritumab-DXd, the clinical responses result is listed as “clinical responses have been observed”.
